# Data published in patent US20260248863A1, “METHODS AND MATERIALS FOR TREATING GASTROINTESTINAL DISORDERS” (Mayo Foundation for Medical Education and Research, priority 2020, published 2026).
# Assays:
# Caco-2 monolayers [1] = experiment: Transepithelial resistance (TER) drop induced by high PA fecal supernatants on Caco-2 monolayers; type: cell-based
# Method: (§1) Apical addition of high PA fecal supernatants on Caco-2 monolayers caused a drop in transepithelial resistance (TER) which was not seen with low PA supernatant (FIG. 16A). […] Since pancreatic elastases were found as the most abundant proteases driving the fecal PA, their effects on barrier were tested.
# Caco-2 monolayers [2] = experiment: Texas red dextran flux across Caco-2 monolayers; type: cell-based
# Method: as §1
molecule,measurement,setting,value
CC(C)C[C@H](NC(=O)[C@H]1O[C@@H]1C(=O)O)C(=O)NCCCCN=C(N)N [E64],inhibition of fecal supernatant induced TER drop,"Caco-2 monolayers [1]; apical preincubation, 0.1 mM E64, Caco-2 monolayers, FIG. 17A",not
same,reduction of increased paracellular (Texas red dextran) flux caused by high PA supernatants,"Caco-2 monolayers [2]; apical preincubation, 0.1 mM E64, Caco-2 monolayers, FIG. 17B",not
Trypsin,effect on barrier,Caco-2 monolayers [2],had an effect on barrier
"porcine pancreatic elastase: porcine pancreatic elastase, protease tested for effects on barrier","Texas red dextran flux, 24 hour basolateral concentration","Caco-2 monolayers [2]; 1 mM, Caco-2 monolayers, control 0.1 μg/mL, n=4/group, p<0.05",5.9 µg/mL
CC(C)CC(=O)N1CCN(C(=O)CCCCCN)CC1 [ENMD1068],effect of high PA fecal supernatant on TER (in words),"Caco-2 monolayers [1]; FIG. 18, n=5/group, p<0.05",blocks
same,inhibition of TER drop induced by high PA fecal supernatants,"Caco-2 monolayers [1]; preincubation of Caco-2 monolayer, 150 μM",45%
